Article PMC10298926, “Biophysical Characterization of the Binding Mechanism between the MATH Domain of SPOP and Its Physiological Partners” (International Journal of Molecular Sciences, 2023)
Where a SMILES comes first, the peptide text is derived from it.

Assays:
SPOP MATH Y125A = SPOP MATH Y125A (Homo sapiens, UniProt O43791, Y123A, form not given); assay: Stopped-flow displacement; type: binding; settings: displacement of dansylated Puc, 298 K
Source text: (§1) To quantitatively address the role of specific residues in the binding mechanism of SPOP MATH, we resorted to taking advantage of the site-directed mutagenesis and generated ten site-directed mutants corresponding to the residues located in the binding pocket of the SPOP MATH domain. In particular, we produced a set of single mutants where residues R71, Y88, F103, Y124, F125, K130, D131, W132, F134, and K135 were substituted with alanine.
(§2) Microscopic dissociation rate constants (koff) were directly measured by performing displacement experiments on an Applied Photophysics DX-17MV stopped-flow apparatus (Applied Photophysics). A preincubated complex of MATH domain and dansylated peptides at a constant concentration (both 8 µM) was rapidly mixed with an excess of nondansylated peptides (50 μM). The samples were excited at 280 nm and fluorescence emission was collected by using a 330 ± 30 nm bandpass filter. The experiments were performed at 298 K in the same buffer used for the binding experiments. The observed rate constants were calculated from the average of five single traces. The observed kinetics were consistent with a single exponential decay.

SPOP MATH D131A = target: T1, SPOP MATH D131A (Homo sapiens, UniProt O43791, C159S/C23S/C44S/C68S/C93S/D130A); assay: Stopped-flow displacement; type: binding
T1 construct: engineered MATH domain of SPOP protein (residues 1–182); His-tag; made in house; host or cells: Escherichia coli BL21 (DE3)
T1 sequence (O43791 1-182 C23S/C44S/C68S/C93S/D130A/C159S): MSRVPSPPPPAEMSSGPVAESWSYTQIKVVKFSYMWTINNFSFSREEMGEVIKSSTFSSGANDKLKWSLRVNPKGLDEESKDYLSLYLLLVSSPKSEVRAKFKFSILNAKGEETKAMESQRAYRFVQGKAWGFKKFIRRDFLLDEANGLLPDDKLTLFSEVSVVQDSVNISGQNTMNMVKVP
Source text: as §1, §2

SPOP MATH K135A = target: T2, SPOP MATH K135A (Homo sapiens, UniProt O43791, C159S/C44S/C68S/C93S/K134A); assay: Stopped-flow displacement; type: binding; settings: displacement of dansylated Puc, 298 K
T2 construct: engineered MATH domain of SPOP protein (residues 1–182); His-tag; made in house; host or cells: Escherichia coli BL21 (DE3)
T2 sequence (O43791 1-182 C44S/C68S/C93S/K134A/C159S): as the sequence (O43791 1-182 C23S/C44S/C68S/C93S/D130A/C159S) above, with S23C, A130D, K134A counted along it
Source text: as §1, §2

SPOP MATH K130A = target: T3, SPOP MATH K130A (Homo sapiens, UniProt O43791, C159S/C23S/C44S/C68S/C93S/K129A); assay: Stopped-flow displacement; type: binding
T3 construct: engineered MATH domain of SPOP protein (residues 1–182); His-tag; made in house; host or cells: Escherichia coli BL21 (DE3)
T3 sequence (O43791 1-182 C23S/C44S/C68S/C93S/K129A/C159S): as the sequence (O43791 1-182 C23S/C44S/C68S/C93S/D130A/C159S) above, with K129A, A130D counted along it
Source text: as §1, §2

SPOP MATH WT [1] = target: T4, SPOP MATH WT (Homo sapiens, UniProt O43791); assay: Equilibrium binding, FRET (Trp to dansyl), fluorescence titration; settings: read-out: Equilibrium KD; dansylated peptide 0 to 40 µM; constant SPOP MATH WT (2 µM in methods, 1 µM in results); excitation 280 nm, emission 300-400 nm; 298 K; hyperbolic fit
T4 sequence (O43791 1-182): as the sequence (O43791 1-182 C23S/C44S/C68S/C93S/D130A/C159S) above, with S23C, S44C, S68C, S93C, A130D, S159C counted along it
Source text: The MATH domain of SPOP exerts its functions by specifically recognizing different substrates and, therefore, acting as an adaptor module between SPOP and its physiological ligands. In an effort to provide a complete characterization of SPOP MATH binding mechanisms, we investigated the recognition of three peptides mimicking a specific region of the substrates Puc (region 96–105), MacroH2A (region 166–179), and PTEN (region 354–368). […] Moreover, the three-dimensional structure of SPOP MATH in complexes with each of the peptides has been previously reported (3HQH, 3HQL, and 4OV1 PDB entries, respectively). Similar to previous work on other protein–protein recognition modules, we employed peptides carrying a covalently attached N-terminal dansyl fluorophore. Binding was then followed by measuring the FRET (Forster resonance energy transfer) between the three tryptophan residues of the SPOP MATH domain (donor) and the dansyl group of the peptides (acceptor).
To address the equilibrium binding affinity of SPOP MATH and its substrates, a fixed concentration of the protein (1 µM) was challenged with increasing peptide concentrations. In all cases, the fluorescence-monitored transition returned a hyperbolic behavior as described in the Section 4, which allowed estimating a dissociation constant of 1.4 ± 0.4 µM, 1.6 ± 0.2 µM, and 5.5 ± 0.5 µM for Puc, MacroH2A, and PTEN, respectively (Figure 2). These values appear partly consistent with what was previously reported by Zhuang et al. by using surface plasmon resonance. […]
Equilibrium binding experiments were performed on a Fluoromax-4 single-photon-counting spectrofluorometer (Jobin-Yvon, Newark, NJ, USA). The SPOP MATH domain was excited at 280 nm and emission spectra were recorded between 300 and 400 nm, at increasing dansylated peptide concentrations. […]

SPOP MATH WT [2] = target: T4, SPOP MATH WT; assay: Stopped-flow displacement; type: binding; settings: preincubated complex (both 8 µM) mixed with 50 μM nondansylated peptide, 298 K, average of five single traces
Protocol: To infer the mechanism of recognition of SPOP MATH, we resorted to performing time-resolved kinetic experiments. SPOP MATH was rapidly mixed with increasing concentrations of dansylated peptides (from 2 to 10 µM for Puc and MacroH2A, and from 2 to 40 µM for PTEN) in a stopped-flow apparatus at 298 K. The binding traces obtained by monitoring the time-resolved fluorescence were satisfactorily fitted to a single exponential equation, allowing calculating the observed rate constants kobs at different peptide concentrations. We then plotted the kobs values over the concentration of dansylated peptide and fitted the data to a simple linear function equation: kobs=kon Peptide+koff where kobs is the observed rate constant; kon and koff are the microscopic association and dissociation rate constants, respectively (Figure 2). The slope and y-axis intercept represent the microscopic association and dissociation rate constant, respectively. To minimize the error associated with the indirect measurement of the dissociation rate constant, we carried out displacement experiments to determine the koff values. The displacement experiments were designed by mixing the preformed complex SPOP MATH-dansylated peptides with a high excess of nondansylated peptide, as described in the Section 4. […] On the basis of these observations, it is possible to conclude that, in the case of binding to MacroH2A and PTEN, there is the presence of an additional step, which escapes detection by stopped-flow experiments and is likely to be negligible in the case of Puc. […] We note that such a case closely resembles the presence of a so-called burst phase, which is frequently observed in protein-folding studies.
Microscopic dissociation rate constants (koff) were directly measured by performing displacement experiments on an Applied Photophysics DX-17MV stopped-flow apparatus (Applied Photophysics). […] The samples were excited at 280 nm and fluorescence emission was collected by using a 330 ± 30 nm bandpass filter. […] The observed rate constants were calculated from the average of five single traces. […]

SPOP MATH Y125A, sequence (O43791 1-182 Y123A, form open): as the sequence (O43791 1-182 C23S/C44S/C68S/C93S/D130A/C159S) above, with S23C, S44C, S68C, S93C, Y123A, A130D, S159C counted along it

CC(C)[C@H](NC(=O)[C@H](CCC(=O)O)NC(=O)[C@H](CC(=O)O)NS(=O)(=O)c1cccc2c(N(C)C)cccc12)C(=O)N[C@H](C(=O)N[C@@H](CO)C(=O)N[C@H](C(=O)N[C@H](C(=O)N[C@@H](CO)C(=O)N[C@@H](CO)C(=O)N[C@@H](CO)C(=O)O)[C@@H](C)O)[C@@H](C)O)[C@@H](C)O [Puc] (HELM PEPTIDE1{[CN(C)c1cccc2c(S(=O)(=O)[*:2])cccc12].D.E.V.T.S.T.T.S.S.S}$$$$V2.0)
koff (SPOP MATH Y125A): 78.0 ± 0.2 s⁻¹
koff (SPOP MATH D131A): 241 ± 1 s⁻¹
koff (SPOP MATH K135A): 45.2 ± 0.4 s⁻¹
koff (SPOP MATH K130A): 123 ± 16 s⁻¹
Kd (SPOP MATH WT [1]): 1400 ± 500 nM
koff (SPOP MATH WT [2]): 26.1 ± 0.1 s⁻¹
